Laboratory results as given in ChEMBL document CHEMBL4308894, “Synthesis and evaluation of biological activity for dual-acting antibiotics on the basis of azithromycin and glycopeptides” (Bioorg Med Chem Lett, 2019).
Converted amounts (≈) assume the structure as drawn. The source made the active and inactive calls. No cut-off for these calls is given here.

Assays:
Staphylococcus aureus [1] = assay: Antibacterial activity against Staphylococcus aureus isolate 3797 by micro dilution method; format: functional
Enterococcus faecalis = assay: Antibacterial activity against Enterococcus faecalis isolate 560 by micro dilution method; format: functional
Escherichia coli [2] = assay: Antibacterial activity against Escherichia coli ATCC 25922 by micro dilution method; format: functional
Enterococcus faecium [3] = assay: Antibacterial activity against Enterococcus faecium isolate 568 by micro dilution method; format: functional
Enterococcus faecium [4] = assay: Antibacterial activity against Enterococcus faecium isolate 569 by micro dilution method; format: functional
Salmonella typhimurium = assay: Antibacterial activity against Salmonella choleraesuis ATCC 14028 by micro dilution method; format: functional, Salmonella enterica subsp. enterica serovar Typhimurium; conditions: Salmonella enterica
Enterococcus gallinarum = assay: Antibacterial activity against Streptococcus gallinarum ATCC 35038 by micro dilution method; format: functional
Staphylococcus aureus [5] = assay: Antibacterial activity against Staphylococcus aureus isolate 10 by micro dilution method; format: functional
Staphylococcus aureus [6] = assay: Antibacterial activity against Staphylococcus aureus isolate 3798 by micro dilution method; format: functional
Escherichia coli [7] = assay: Induction of translation arrest in tolC-deficient Escherichia coli harboring pRFPCER-TrpL2A assessed as increase in pRFPCER-TrpL2A reporter activity at 10 mg/ml after overnight incubation by dual fluorescent-reporter gene assay; format: functional, organism-based
Streptococcus pneumoniae = assay: Antibacterial activity against Streptococcus pneumoniae ATCC 49619 by micro dilution method; format: functional
[8] = test system: Staphylococcus epidermidis; assay: Antibacterial activity against Staphylococcus epidermidis isolate 533 by micro dilution method; format: functional
Staphylococcus aureus [9] = assay: Antibacterial activity against Staphylococcus aureus isolate 1025 by micro dilution method; format: functional
Streptococcus agalactiae = assay: Antibacterial activity against Streptococcus agalactiae isolate 52 by micro dilution method; format: functional
Staphylococcus aureus [10] = assay: Antibacterial activity against Staphylococcus aureus ATCC 25923 by micro dilution method; format: functional
Klebsiella pneumoniae = assay: Antibacterial activity against Klebsiella pneumoniae ATCC 13883 by micro dilution method; format: functional

How did the MIC (Staphylococcus aureus [1]) turn out when CC[C@H]1OC(=O)[C@H](C)[C@@H](O[C@H]2C[C@@](C)(OC)[C@@H](OC(=O)NCCNC(=O)[C@H]3NC(=O)[C@H]4NC(=O)[C@H](NC(=O)[C@@H]5NC(=O)[C@H](CC(N)=O)NC(=O)[C@H](NC(=O)[C@@H](CC(C)C)NC)[C@H](O)c6ccc(c(Cl)c6)Oc6cc5cc(c6O[C@@H]5O[C@H](CO)[C@@H](O)[C@H](O)[C@H]5O[C@H]5C[C@](C)(N)[C@H](O)[C@H](C)O5)Oc5ccc(cc5Cl)[C@H]4O)c4ccc(O)c(c4)-c4c(O)cc(O)cc43)[C@H](C)O2)[C@H](C)[C@@H](O[C@@H]2O[C@H](C)C[C@H](N(C)C)[C@H]2O)[C@](C)(O)C[C@@H](C)CN(C)[C@H](C)[C@H]2OC(=O)O[C@]21C was run?
Its MIC is 4 µg/mL (≈ 1.74 µM).

What about the MIC (Enterococcus faecalis) of the same compound?
The MIC was 32 µg/mL (≈ 14 µM).

And the MIC (Escherichia coli [2])?
The MIC was greater than 32 µg/mL.

And the MIC (Enterococcus faecium [3])?
The MIC was 1 µg/mL (≈ 0.436 µM).

And the MIC (Enterococcus faecium [4])?
The MIC was greater than 32 µg/mL.

And the MIC (Salmonella typhimurium)?
Its MIC is greater than 32 µg/mL.

What about the MIC (Enterococcus gallinarum) of the same compound?
The MIC was 4 µg/mL (≈ 1.74 µM).

What about the MIC (Staphylococcus aureus [5]) of the same compound?
Its MIC is 1 µg/mL (≈ 0.436 µM).

What about the MIC (Staphylococcus aureus [6]) of the same compound?
Its MIC is greater than 32 µg/mL.

And the Activity (Escherichia coli [7])?
The Activity was “Active”.

And the MIC (Streptococcus pneumoniae)?
Its MIC is 1 µg/mL (≈ 0.436 µM).

And the MIC [8]?
The MIC was 1 µg/mL (≈ 0.436 µM).

And the MIC (Staphylococcus aureus [9])?
The MIC was greater than 32 µg/mL.

And the MIC (Streptococcus agalactiae)?
Its MIC is 32 µg/mL (≈ 14 µM).

What about the MIC (Staphylococcus aureus [10]) of the same compound?
Its MIC is 1 µg/mL (≈ 0.436 µM).

And the MIC (Klebsiella pneumoniae)?
Its MIC is greater than 32 µg/mL.

CC[C@H]1OC(=O)[C@H](C)[C@@H](O[C@H]2C[C@@](C)(OC)[C@@H](OC(=O)NCCCNC(=O)[C@H]3NC(=O)[C@H]4NC(=O)[C@H](NC(=O)[C@@H]5NC(=O)[C@H](CC(N)=O)NC(=O)[C@H](NC(=O)[C@@H](CC(C)C)NC)[C@H](O)c6ccc(c(Cl)c6)Oc6cc5cc(c6O[C@@H]5O[C@H](CO)[C@@H](O)[C@H](O)[C@H]5O[C@H]5C[C@](C)(N)[C@H](O)[C@H](C)O5)Oc5ccc(cc5Cl)[C@H]4O[C@H]4C[C@](C)(N)[C@@H](O)[C@H](C)O4)c4ccc(O)c(c4)-c4c(O)cc(O)cc43)[C@H](C)O2)[C@H](C)[C@@H](O[C@@H]2O[C@H](C)C[C@H](N(C)C)[C@H]2O)[C@](C)(O)C[C@@H](C)CN(C)[C@H](C)[C@H]2OC(=O)O[C@]21C was tested. Which MIC (Staphylococcus aureus [1]) did it give?
The MIC was 4 µg/mL (≈ 1.63 µM).

What about the MIC (Enterococcus faecalis) of the same compound?
Its MIC is 8 µg/mL (≈ 3.27 µM).

And the MIC (Escherichia coli [2])?
The MIC was greater than 32 µg/mL.

What about the MIC (Enterococcus faecium [3]) of the same compound?
The MIC was 0.5 µg/mL (≈ 0.204 µM).

What about the MIC (Enterococcus faecium [4]) of the same compound?
Its MIC is 4 µg/mL (≈ 1.63 µM).

What about the MIC (Salmonella typhimurium) of the same compound?
Its MIC is greater than 32 µg/mL.

And the MIC (Enterococcus gallinarum)?
The MIC was 2 µg/mL (≈ 0.816 µM).

And the MIC (Staphylococcus aureus [5])?
Its MIC is 0.06 µg/mL (≈ 0.0245 µM).

And the MIC (Staphylococcus aureus [6])?
The MIC was 4 µg/mL (≈ 1.63 µM).

What about the Activity (Escherichia coli [7]) of the same compound?
The Activity was “inactive”.

What about the MIC (Streptococcus pneumoniae) of the same compound?
The MIC was 1 µg/mL (≈ 0.408 µM).

And the MIC [8]?
Its MIC is 1 µg/mL (≈ 0.408 µM).

What about the MIC (Staphylococcus aureus [9]) of the same compound?
The MIC was 16 µg/mL (≈ 6.53 µM).

What about the MIC (Streptococcus agalactiae) of the same compound?
The MIC was 4 µg/mL (≈ 1.63 µM).

And the MIC (Staphylococcus aureus [10])?
Its MIC is 1 µg/mL (≈ 0.408 µM).

What about the MIC (Klebsiella pneumoniae) of the same compound?
Its MIC is greater than 32 µg/mL.

What does the source list for CC[C@H]1OC(=O)[C@H](C)[C@@H](O[C@H]2C[C@@](C)(OC)[C@@H](OC(=O)NCCNC(=O)[C@H]3NC(=O)[C@H]4NC(=O)[C@H](NC(=O)[C@@H]5NC(=O)C6NC(=O)[C@@H](Cc7ccc(c(Cl)c7)Oc7cc5cc(c7O)Oc5ccc(cc5Cl)[C@H]4O)NC(=O)[C@H](N)c4ccc(O)c(c4)Oc4cc(O)cc6c4)c4ccc(O)c(c4)-c4c(O)cc(O)cc43)[C@H](C)O2)[C@H](C)[C@@H](O[C@@H]2O[C@H](C)C[C@H](N(C)C)[C@H]2O)[C@](C)(O)C[C@@H](C)CN(C)[C@H](C)[C@H]2OC(=O)O[C@]21C?
MIC (Staphylococcus aureus [1]): 1 µg/mL (≈ 0.49 µM); MIC (Enterococcus faecalis): 16 µg/mL (≈ 7.84 µM); MIC (Escherichia coli [2]): > 32 µg/mL; MIC (Enterococcus faecium [3]): 0.13 µg/mL (≈ 0.0637 µM); MIC (Enterococcus faecium [4]): 8 µg/mL (≈ 3.92 µM); MIC (Salmonella typhimurium): > 32 µg/mL; MIC (Enterococcus gallinarum): 2 µg/mL (≈ 0.979 µM); MIC (Staphylococcus aureus [5]): 0.06 µg/mL (≈ 0.0294 µM); MIC (Staphylococcus aureus [6]): 32 µg/mL (≈ 15.7 µM); Activity (Escherichia coli [7]): inactive; MIC (Streptococcus pneumoniae): 0.5 µg/mL (≈ 0.245 µM); MIC [8]: 0.5 µg/mL (≈ 0.245 µM); MIC (Staphylococcus aureus [9]): > 32 µg/mL; MIC (Streptococcus agalactiae): 32 µg/mL (≈ 15.7 µM); MIC (Staphylococcus aureus [10]): 1 µg/mL (≈ 0.49 µM); MIC (Klebsiella pneumoniae): > 32 µg/mL

Which results are given for CC[C@H]1OC(=O)[C@H](C)[C@@H](O[C@H]2C[C@@](C)(OC)[C@@H](OC(=O)NCCCNC(=O)[C@H]3NC(=O)[C@H]4NC(=O)[C@H](NC(=O)[C@@H]5NC(=O)[C@H](CC(N)=O)NC(=O)[C@H](NC(=O)[C@@H](CC(C)C)NC)[C@H](O)c6ccc(c(Cl)c6)Oc6cc5cc(c6O[C@@H]5O[C@H](CO)[C@@H](O)[C@H](O)[C@H]5O[C@H]5C[C@](C)(N)[C@H](O)[C@H](C)O5)Oc5ccc(cc5Cl)[C@H]4O)c4ccc(O)c(c4)-c4c(O)cc(O)cc43)[C@H](C)O2)[C@H](C)[C@@H](O[C@@H]2O[C@H](C)C[C@H](N(C)C)[C@H]2O)[C@](C)(O)C[C@@H](C)CN(C)[C@H](C)[C@H]2OC(=O)O[C@]21C?
MIC (Staphylococcus aureus [1]): 4 µg/mL (≈ 1.73 µM); MIC (Enterococcus faecalis): 32 µg/mL (≈ 13.9 µM); MIC (Escherichia coli [2]): > 32 µg/mL; MIC (Enterococcus faecium [3]): 1 µg/mL (≈ 0.434 µM); MIC (Enterococcus faecium [4]): > 32 µg/mL; MIC (Salmonella typhimurium): > 32 µg/mL; MIC (Enterococcus gallinarum): 4 µg/mL (≈ 1.73 µM); MIC (Staphylococcus aureus [5]): 1 µg/mL (≈ 0.434 µM); MIC (Staphylococcus aureus [6]): > 32 µg/mL; Activity (Escherichia coli [7]): inactive; MIC (Streptococcus pneumoniae): 1 µg/mL (≈ 0.434 µM); MIC [8]: 2 µg/mL (≈ 0.867 µM); MIC (Staphylococcus aureus [9]): > 32 µg/mL; MIC (Streptococcus agalactiae): 32 µg/mL (≈ 13.9 µM); MIC (Staphylococcus aureus [10]): 2 µg/mL (≈ 0.867 µM); MIC (Klebsiella pneumoniae): > 32 µg/mL
